Data reported in PubChem BioAssay AID488833 (Sanford-Burnham Center for Chemical Genomics, 2010).
The source made the active and inactive calls.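 The calls were made as follows: active = EC50 below a set limit; inactive = the rest.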

Biological target: Kappa-type opioid receptor (Homo sapiens) (UniProt P41145)
Test: KOR agonist analogs, arrestin-GFP redistribution, SAR follow-up, imaging, image-based, set 3 (AID 488833)
Settings: U2OS KOR beta-arrestin-GFP translocation imaging

Sequence of Kappa-type opioid receptor (Homo sapiens) (P41145 whole entry, looked up): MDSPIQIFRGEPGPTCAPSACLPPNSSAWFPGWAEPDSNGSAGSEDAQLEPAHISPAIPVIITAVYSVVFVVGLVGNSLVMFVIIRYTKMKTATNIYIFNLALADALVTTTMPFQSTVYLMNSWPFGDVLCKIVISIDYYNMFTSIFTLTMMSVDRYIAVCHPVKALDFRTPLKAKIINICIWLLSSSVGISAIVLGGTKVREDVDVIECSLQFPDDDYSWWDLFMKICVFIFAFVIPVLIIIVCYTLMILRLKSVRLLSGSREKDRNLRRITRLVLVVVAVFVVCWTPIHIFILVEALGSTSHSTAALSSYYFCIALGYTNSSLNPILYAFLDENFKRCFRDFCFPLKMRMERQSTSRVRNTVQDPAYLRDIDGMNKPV

`Cc1ccccc1CSc1nnc(-c2ccccn2)n1Cc1cccs1` was tested, and the EC50 was “inactive”.
